Assay results as given in patent US20090270450A1, “CHEMICAL COMPOUNDS” (ASTRAZENECA AB, priority 2006, published 2009).

Target: T1, His-tagged kinase domain of CSF-1R (amino acids 568-912) (Homo sapiens, UniProt P07333)
T1 construct: The His-tagged kinase domain of CSF-1R (i.e., amino acids 568-912, GeneBank ID NM_005211); His; made in house; host or cells: baculovirus infected SF+Express insect cells
T1 sequence (P07333 568-912): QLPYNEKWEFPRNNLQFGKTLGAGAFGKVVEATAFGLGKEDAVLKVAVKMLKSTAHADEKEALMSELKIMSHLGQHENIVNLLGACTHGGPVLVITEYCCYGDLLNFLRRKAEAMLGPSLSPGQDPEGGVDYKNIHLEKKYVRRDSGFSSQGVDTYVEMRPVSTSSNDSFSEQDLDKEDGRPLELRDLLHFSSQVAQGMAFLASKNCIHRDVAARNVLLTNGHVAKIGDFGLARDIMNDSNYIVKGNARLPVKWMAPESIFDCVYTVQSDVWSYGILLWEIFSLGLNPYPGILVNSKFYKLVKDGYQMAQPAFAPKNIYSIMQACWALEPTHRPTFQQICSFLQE
Experiment: Assay 1: CSF-1R in vitro AlphaScreen assay
Assay type: biochemical
Settings: phosphorylation of biotinylated pEY substrate; 0.57 nM CSF-1R, 90 μM ATP
Experimental: Assay 1: CSF-1R in Vitro AlphaScreen Assay
Activity of purified CSF-1R was determined in vitro using an Amplified Luminescent Proximity Homogeneous Assay (ALPHA)(Perkin Elmer), which measures phosphorylation of the CSF-1R substrate, biotinylated poly-glutamine-tyrosine peptide (PEY-HTRF CisBio 61GT0BLD), as described below. The His-tagged kinase domain of CSF-1R (i.e., amino acids 568-912, GeneBank ID NM_005211; (see page 25 lines 13-19 of WO 2006/067445 for the sequence listing)) was purified from baculovirus infected SF+Express insect cells (1.4×10^6 cells/ml), French pressed and chromatographed through subsequent Qiagen Ni-NTA, Superflow Mono Q HR 10/10, and Superdex 200 SEC columns. Typical yield was 245 μg/l of cell pellet at >95% purity.
The phosphorylation of the CSF-1R substrate in the presence and absence of the compound of interest was determined. Briefly, 0.57 nM of purified CSF-1R, 5 nM pEY substrate, and compound were preincubated in 1× buffer for 30 minutes at 25° C. Reactions were initiated with addition of 90 μM adenosine triphosphate (ATP) in 1× buffer and incubated at 25° C. for 60 minutes and reactions stopped by addition of 5 μl of detection mix consisting of 136 mM NaCl, 102 mM ethylenediamine tetraacetic acid, 1.65 mg/ml BSA, 40 ug/ml Streptavidin donor beads (Perkin Elmer 6760002), 40 ug/ml pTyr100 acceptor beads (Perkin Elmer 6760620). Plates were incubated at 25° C. for 18 hours in the dark. Phosphorylated substrate was detected by an EnVision plate reader (Perkin Elmer) 680 nm excitation, 520-620 nm emission. Data was graphed and IC50s calculated using Excel Fit (Microsoft).

Compound | IC50 [µM]
COc1cc2ncc(C(N)=O)c(Nc3ccc(Cl)c(Cl)c3)c2cc1CCCN [Example 1, 6-(3-Aminopropyl)-4-[(3,4-dichlorophenyl)amino]-7-methoxyquinoline-3-carboxamide] | 0.002
CCOc1cc2ncc(C(N)=O)c(Nc3cccc(Cl)c3F)c2cc1CCCO [Example 3, 4-[(3-Chloro-2-fluorophenyl)amino]-7-ethoxy-6-(3-hydroxypropyl)quinoline-3-carboxamide] | 0.005
COc1cc2ncc(C(N)=O)c(Nc3ccc(F)cc3F)c2cc1CCCN1CCCCC1 [Example 8, 4-[(2,4-Difluorophenyl)amino]-7-methoxy-6-(3-piperidin-1-ylpropyl)quinoline-3-carboxamide] | 0.02
COc1cc2ncc(C(N)=O)c(Nc3ccc(F)cc3F)c2cc1CCCN(C)C [Example 9, 4-[(2,4-Difluorophenyl)amino]-6-[3-(dimethylamino)propyl]-7-methoxyquinoline-3-carboxamide] | 0.003
COc1cc2ncc(C(N)=O)c(Nc3ccc(F)cc3F)c2cc1CCCNC1CC1 [Example 10, 6-[3-(Cyclopropylamino)propyl]-4-[(2,4-difluorophenyl)amino]-7-methoxyquinoline-3-carboxamide] | 0.023
COc1cc2ncc(C(N)=O)c(Nc3ccc(Cl)c(Cl)c3)c2cc1CCCNC1CC1 [Example 11, 6-[3-(Cyclopropylamino)propyl]-4-[(3,4-dichlorophenyl)amino]-7-methoxyquinoline-3-carboxamide] | 0.004
COc1cc2ncc(C(N)=O)c(Nc3ccc(Cl)c(Cl)c3)c2cc1CCCN1CCCCC1 [Example 12, 4-[(3,4-Dichlorophenyl)amino]-7-methoxy-6-(3-piperidin-1-ylpropyl)quinoline-3-carboxamide] | 0.004
COc1cc2ncc(C(N)=O)c(Nc3ccc(Cl)c(Cl)c3)c2cc1CCCN(C)C [Example 13, 4-[(3,4-Dichlorophenyl)amino]-6-[3-(dimethylamino)propyl]-7-methoxyquinoline-3-carboxamide] | 0.001
COc1cc2ncc(C(N)=O)c(Nc3ccc(F)cc3F)c2cc1CCCO [Example 14, 4-[(2,4-Difluorophenyl)amino]-6-(3-hydroxypropyl)-7-methoxyquinoline-3-carboxamide] | 0.008
COc1cc2ncc(C(N)=O)c(Nc3ccc(Cl)c(Cl)c3)c2cc1CCCO [Example 15, 4-[(3,4-Dichlorophenyl)amino]-6-(3-hydroxypropyl)-7-methoxyquinoline-3-carboxamide] | 0.002
CCOc1cc2ncc(C(N)=O)c(Nc3ccc(F)cc3F)c2cc1CCCO [Example 16, 4-[(2,4-Difluorophenyl)amino]-7-ethoxy-6-(3-hydroxypropyl)quinoline-3-carboxamide] | 0.005
COc1cc2ncc(C(N)=O)c(Nc3ccc(F)c(Cl)c3)c2cc1CCCO [Example 17, 4-[(3-Chloro-4-fluorophenyl)amino]-6-(3-hydroxypropyl)-7-methoxyquinoline-3-carboxamide] | 0.009
COc1cc2ncc(C(N)=O)c(Nc3cccc(Cl)c3F)c2cc1CCCO [Example 18, 4-[(3-Chloro-2-fluorophenyl)amino]-6-(3-hydroxypropyl)-7-methoxyquinoline-3-carboxamide] | < 0.003
COc1cc2ncc(C(N)=O)c(Nc3cccc(Cl)c3Cl)c2cc1CCCO [Example 19, 4-[(2,3-Dichlorophenyl)amino]-6-(3-hydroxypropyl)-7-methoxyquinoline-3-carboxamide] | 0.008
CCc1ccc(Nc2c(C(N)=O)cnc3cc(OC)c(CCCO)cc23)cc1 [Example 20, 4-[(4-Ethylphenyl)amino]-6-(3-hydroxypropyl)-7-methoxyquinoline-3-carboxamide] | 0.038
CCc1ccc(Nc2c(C(N)=O)cnc3cc(OC)c(C#CCO)cc23)cc1 [Example 21, 4-[(4-Ethylphenyl)amino]-6-(3-hydroxyprop-1-yn-1-yl)-7-methoxyquinoline-3-carboxamide] | 0.018
CCOc1cc2ncc(C(N)=O)c(Nc3ccc(CC)cc3)c2cc1CCCO [Example 22, 7-Ethoxy-4-[(4-ethylphenyl)amino]-6-(3-hydroxypropyl)quinoline-3-carboxamide] | 0.033

Compound | IC50 [µM]
CCOc1cc2ncc(C(N)=O)c(Nc3ccc(Cl)c(Cl)c3)c2cc1CCCO [Example 23, 4-[(3,4-Dichlorophenyl)amino]-7-ethoxy-6-(3-hydroxypropyl)quinoline-3-carboxamide] | 0.022
CCOc1cc2ncc(C(N)=O)c(Nc3cccc(Cl)c3Cl)c2cc1CCCO [Example 24, 4-[(2,3-Dichlorophenyl)amino]-7-ethoxy-6-(3-hydroxypropyl)quinoline-3-carboxamide] | 0.026
CCOc1cc2ncc(C(N)=O)c(Nc3ccc(F)c(Cl)c3)c2cc1CCCO [Example 25, 4-[(3-Chloro-4-fluorophenyl)amino]-7-ethoxy-6-(3-hydroxypropyl)quinoline-3-carboxamide] | 0.007
COc1cc2ncc(C(N)=O)c(Nc3ccc(Cl)c(Cl)c3)c2cc1C1CC1 [Example 26, 6-Cyclopropyl-4-[(3,4-dichlorophenyl)amino]-7-methoxyquinoline-3-carboxamide] | 0.14
COc1cc2ncc(C(N)=O)c(Nc3ccc(F)cc3F)c2cc1C1CC1 [Example 27, 6-Cyclopropyl-4-[(2,4-difluorophenyl)amino]-7-methoxyquinoline-3-carboxamide] | 0.065
COc1cc2c(Nc3ccc(F)cc3F)c(C(N)=O)cnc2cc1C1CC1 [Example 28, 7-Cyclopropyl-4-[(2,4-difluorophenyl)amino]-6-methoxyquinoline-3-carboxamide] | 0.014
COc1cc2c(Nc3ccc(Cl)c(Cl)c3)c(C(N)=O)cnc2cc1C1CC1 [Example 29, 7-Cyclopropyl-4-[(3,4-dichlorophenyl)amino]-6-methoxyquinoline-3-carboxamide] | 0.057
CCOc1cc2ncc(C(N)=O)c(Nc3ccc(F)cc3F)c2cc1-c1ccc(OC)nc1 [Example 30, 4-[(2,4-Difluorophenyl)amino]-7-ethoxy-6-(6-methoxypyridin-3-yl)quinoline-3-carboxamide] | 0.076
CCOc1cc2ncc(C(N)=O)c(Nc3ccc(F)cc3F)c2cc1-c1cccnc1 [Example 31, 4-[(2,4-Difluorophenyl)amino]-7-ethoxy-6-pyridin-3-ylquinoline-3-carboxamide] | 0.043
CCOc1cc2ncc(C(N)=O)c(Nc3ccc(F)cc3F)c2cc1-c1c(C)noc1C [Example 32, 4-[(2,4-Difluorophenyl)amino]-6-(3,5-dimethylisoxazol-4-yl)-7-ethoxyquinoline-3-carboxamide] | 0.035
CCOc1cc2ncc(C(N)=O)c(Nc3ccc(F)cc3F)c2cc1-c1ccc[nH]1 [Example 33, 4-[(2,4-Difluorophenyl)amino]-7-ethoxy-6-(1H-pyrrol-2-yl)quinoline-3-carboxamide] | 0.096
CCOc1cc2ncc(C(N)=O)c(Nc3ccc(F)cc3F)c2cc1-c1cncnc1 [Example 34, 4-[(2,4-Difluorophenyl)amino]-7-ethoxy-6-pyrimidin-5-ylquinoline-3-carboxamide] | 0.025
CCOc1cc2ncc(C(N)=O)c(Nc3ccc(F)cc3F)c2cc1-c1ccncc1 [Example 35, 4-[(2,4-Difluorophenyl)amino]-7-ethoxy-6-pyridin-4-ylquinoline-3-carboxamide] | 0.061
CCOc1cc2ncc(C(N)=O)c(Nc3ccc(F)cc3F)c2cc1-c1cn[nH]c1 [Example 36, 4-[(2,4-Difluorophenyl)amino]-7-ethoxy-6-(1H-pyrazol-4-yl)quinoline-3-carboxamide] | 0.028
CCOc1cc2ncc(C(N)=O)c(Nc3ccc(F)cc3F)c2cc1-c1cnn(CC(C)C)c1 [Example 37, 4-[(2,4-Difluorophenyl)amino]-7-ethoxy-6-(1-isobutyl-1H-pyrazol-4-yl)quinoline-3-carboxamide] | 0.44
CCOc1cc2ncc(C(N)=O)c(Nc3ccc(F)cc3F)c2cc1C1=CCN(C(=O)OC(C)(C)C)CC1 [Example 38, tert-Butyl 4-{3-(aminocarbonyl)-4-[(2,4-difluorophenyl)amino]-7-ethoxyquinolin-6-yl}-3,6-dihydropyridine-1(2H)-carboxylate] | 0.66
